# According to patent publication US20100099759A1, “AGRICULTURAL APPLICATIONS OF SILVER […]” (priority 2008, published 2010):
# Read-outs that look alike come from different tables or passages of the source.
# System: Phakopsora pachyrhizi spores
# Method: The leaves were examined with a stereoscope in order to identify those with a high degree of sporulation. Leaves were cut in standard size pieces.
# Three different concentrations of SDC in distilled water were prepared having 5 ppm, 10 ppm and 15 ppm of silver, respectively. Ten ml of each solution was placed in separate test tubes. Ten selected pieces of soybean leaves were place in each test tube and stirred to suspend the spores present in the rust spots. The same procedure was used for a control, omitting the SDC in the solution. The leaves were left in the solution for two hours. For each of the product dilutions, ten Petri dishes containing water-agar substrate were inoculated with 100 spores each and maintained for 6 hours in the dark. Lactophenol dye was used to stain the mycelium growth, which was evaluated visually be microscope.
# A second experiment was performed using the protocol above, with the following additions. Duplicate solutions were made using Well Water from Parana State, Southern Brazil (WW) and Product Water from Reverse Osmosis (PW). The surfactant sodium lauryl sulphate was added to each solution to a concentration of 0.01% w/w. Again, duplicate Petri dishes were inoculated with 100 spores for each concentration of SDC in the two water types and for […] the control.
smiles,measurement,setting,value
"O=C(O)CC(O)(CC(=O)O)C(=O)[O-].[Ag+] [SDC, silver dihydrogen citrate]",germination of spores from soybean leaves (summary in words),"5, 10 and 15 ppm silver in distilled water, well water and product water from reverse osmosis, with or without surfactant",almost totally inhibited
same,% Germination,"first experiment, 5 ppm silver in distilled water, 2 h in solution, 6 h in the dark, control 16",5.0%
same,% Germination,"first experiment, 10 ppm silver in distilled water, 2 h in solution, 6 h in the dark, control 16",4.0%
same,% Germination,"first experiment, 15 ppm silver in distilled water, 2 h in solution, 6 h in the dark, control 16",5.0%
same,% Germination,"second experiment, 5 ppm, Product Water from Reverse Osmosis (PW), 0.01% w/w sodium lauryl sulphate, control 40",1.6%
same,% Germination,"second experiment, 5 ppm, Well Water (WW), 0.01% w/w sodium lauryl sulphate, control 40",1.1%
same,% Germination,"second experiment, 10 ppm, Product Water from Reverse Osmosis (PW), 0.01% w/w sodium lauryl sulphate, control 40",0.4%
same,% Germination,"second experiment, 10 ppm, Well Water (WW), 0.01% w/w sodium lauryl sulphate, control 40",0.5%
same,% Germination,"second experiment, 15 ppm, Product Water from Reverse Osmosis (PW), 0.01% w/w sodium lauryl sulphate, control 40",0.5%
same,% Germination,"second experiment, 15 ppm, Well Water (WW), 0.01% w/w sodium lauryl sulphate, control 40",0.2%
